Laboratory results taken from patent US11976054B2, “Amide derivative and preparation method therefore and use thereof in medicine” (Chengdu Baiyu Pharmaceutical Co., Ltd., priority 2019, dated 2024).

Test system: Human monocyte cell line THP-1
Assay: Detection of THP-1 cell pyroptosis (Caspase-Glo 1 Inflammasome Assay)
Type: cell-based
Conditions: 20 nM PMA 48 h, 1 μg/mL LPS, compound 3 h
Protocol: Human monocyte cell line THP-1 (ATCC® TB-202TM) was cultured in RPMI-1640 culture medium containing […], 1 mM pyruvic acid, 0.05 mM β-mercaptoethanol and 10% double antibody under the culture conditions of 37° C. and […].
Cell counting was performed, THP-1 cells were seeded into a 96-well plate at 50000 per well, and 20 nM PMA was added for inducing at 37° C./5% CO2 for 48 h. The culture medium was then discarded, and 100 μL of serum-free RPMI-1640 medium containing 1 μg/mL LPS was added. 5 μL of compound or solvent control was added and 3-fold diluted in gradient from a maximum concentration of 10 μM, and 10 gradient concentrations were set. The mixtures were incubated at 37° C./5% CO2 for 3 h. After the incubation, the mixtures were centrifuged at 300 g for 5 min, and the culture medium was discarded. Pyroptosis assay was performed according to specific steps described in instructions of Caspase-Glo® 1 Inflammasome Assay kit. IC50 was calculated using GraphPad Prism7.0 software.

[1] = Homo sapiens, THP-1, THP-1 pyroptosis

## CC(C)(O)c1coc(S(=N)(=O)NC(=O)Nc2c(CC3CCC3)ccc3c2CC3)c1 (single isomer, unassigned) [Compound 34-2, RS- and SS-N-((3-(cyclobutylmethyl)bicyclo[4.2.0]octa-1(6),2,4-trien-2-yl)carbamoyl)-4-(2-hydroxypropan-2-yl)furan-2-sulfonimidamide]
THP-1 pyroptosis
  IC50: ≤ 0.1 µM

## CC(C)c1cccc(CC2CCC2)c1NC(=O)NS(=N)(=O)c1cc(C(C)(C)O)co1 (single isomer, unassigned) [Compound 70-1, RS- and SS-N-((2-(cyclobutylmethyl)-6-isopropylphenyl)carbamoyl)-4-(2-hydroxypropan-2-yl)furan-2-sulfonimidamide]
THP-1 pyroptosis
  IC50: ≤ 0.1 µM

## CC(C)c1cccc(CC2CCC2)c1NC(=O)NS(=N)(=O)c1cc(C(C)(C)O)co1 (single isomer, unassigned) [Compound 70-2, RS- and SS-N-((2-(cyclobutylmethyl)-6-isopropylphenyl)carbamoyl)-4-(2-hydroxypropan-2-yl)furan-2-sulfonimidamide]
THP-1 pyroptosis
  IC50: 1 to 5 µM

## CC(c1ccc2c(c1NC(=O)NS(=O)(=O)c1cc(C(C)(C)O)co1)CCC2)C1CC1 (stereo not shown) [Compound 1, N-((5-(1-cyclopropylethyl)-2,3-dihydro-1H-inden-4-yl)carbamoyl)-4-(2-hydroxypropan-2-yl)furan-2-sulfonamide]
[1]
  IC50: 0.1 to 0.5 µM

## CC(C)(O)c1coc(S(=O)(=O)NC(=O)Nc2c(CC3CC3)ccc3c2CCC3)c1 [Compound 3, N-((5-(cyclopropylmethyl)-2,3-dihydro-1H-inden-4-yl)carbamoyl)-4-(2-hydroxypropan-2-yl)furan-2-sulfonamide]
[1]
  IC50: 0.1 to 0.5 µM

## COc1cc(-c2cc(F)cc(C(C)C3CC3)c2NC(=O)NS(=O)(=O)c2cc(C(C)(C)O)co2)ccn1 (stereo not shown) [Compound 4, N-((2-(1-cyclopropylethyl)-4-fluoro-6-(2-methoxypyridin-4-yl)phenyl)carbamoyl)-4-(2-hydroxypropan-2-yl)furan-2-sulfonamide]
[1]
  IC50: 0.1 to 0.5 µM

## C[C@@H](c1ccc2c(c1NC(=O)NS(=O)(=O)c1cc(C(C)(C)O)co1)CCC2)C1CC1 [Compound 5, (R)-N-((5-(1-cyclopropylethyl)-2,3-dihydro-1H-inden-4-yl)carbamoyl)-4-(2-hydroxypropan-2-yl)furan-2-sulfonamide]
[1]
  IC50: ≤ 0.1 µM

## CC(c1ccc2c(c1NC(=O)NS(=O)(=O)c1cc(C(C)(C)O)co1)CCC2)C1CCC1 (stereo not shown) [Compound 15, N-((5-(1-cyclobutylethyl)-2,3-dihydro-1H-inden-4-yl)carbamoyl)-4-(2-hydroxypropan-2-yl)furan-2-sulfonamide]
[1]
  IC50: 0.1 to 0.5 µM

## CC(c1ccc2c(c1NC(=O)NS(=N)(=O)c1cc(C(C)(C)O)co1)CCC2)C1CCC1 (stereo not shown) [Compound 16, N-((5-(1-cyclobutylethyl)-2,3-dihydro-1H-inden-4-yl)carbamoyl)-4-(2-hydroxypropan-2-yl)furan-2-sulfonimidamide]
[1]
  IC50: ≤ 0.1 µM

## CC(C)(O)c1coc(S(=O)(=O)NC(=O)Nc2c(CC3CCC3)ccc3c2CCC3)c1 [Compound 17, N-((5-(cyclobutylmethyl)-2,3-dihydro-1H-inden-4-yl)carbamoyl)-4-(2-hydroxypropan-2-yl)furan-2-sulfonamide]
[1]
  IC50: 0.1 to 0.5 µM

## Cc1oc(S(=O)(=O)NC(=O)Nc2c([C@H](C)C3CC3)ccc3c2CCC3)cc1C(C)(C)O [Compound 22, (R)-N-((5-(1-cyclopropylethyl)-2,3-dihydro-1H-inden-4-yl)carbamoyl)-4-(2-hydroxypropan-2-yl)-5-methylfuran-2-sulfonamide]
[1]
  IC50: ≤ 0.1 µM

## C[C@@H](c1ccc2c(c1NC(=O)NS(=O)(=O)c1cc(C(C)(C)O)co1)CCC2)C1CCCC1 [Compound 26, (R)-N-((5-(1-cyclopentylethyl)-2,3-dihydro-1H-inden-4-yl)carbamoyl)-4-(2-hydroxypropan-2-yl)furan-2-sulfonamide]
[1]
  IC50: 1 to 5 µM

## CC(C)(O)c1coc(S(=O)(=O)NC(=O)Nc2c(CC3CCCC3)ccc3c2CCC3)c1 [Compound 28, N-((5-(cyclopentylmethyl)-2,3-dihydro-1H-inden-4-yl)carbamoyl)-4-(2-hydroxypropan-2-yl)furan-2-sulfonamide]
[1]
  IC50: 0.5 to 1 µM

## [2H]c1cc([C@@H](C)C2CC2)c(NC(=O)NS(=O)(=O)c2cc(C(C)(C)O)co2)c2c1CCC2 [Compound 30, (S)-N-((5-(1-cyclopropylethyl)-2,3-dihydro-1H-inden-4-yl-7-d)carbamoyl)-4-(2-hydroxypropan-2-yl)furan-2-sulfonamide]
[1]
  IC50: 1 to 5 µM

## CC(C)(O)c1coc(S(=O)(=O)NC(=O)Nc2c(CC3CCC3)ccc3c2CC3)c1 [Compound 33, N-((3-(cyclobutylmethyl)bicyclo[4.2.0]octa-1(6),2,4-trien-2-yl)carbamoyl)-4-(2-hydroxypropan-2-yl)furan-2-sulfonamide]
[1]
  IC50: 0.1 to 0.5 µM

## C[C@H](c1ccc2c(c1NC(=O)NS(=O)(=O)c1cc(C(C)(C)O)co1)CC2)C1CC1 [Compound 35, (S)-N-((3-(1-cyclopropylethyl)bicyclo[4.2.0]octa-1(6),2,4-trien-2-yl)carbamoyl)-4-(2-hydroxypropan-2-yl)furan-2-sulfonamide]
[1]
  IC50: 1 to 5 µM

## C[C@@H](c1ccc2c(c1NC(=O)NS(=O)(=O)c1cc(C(C)(C)O)co1)CC2)C1CC1 [Compound 37, (R)-N-((3-(1-cyclopropylethyl)bicyclo[4.2.0]octa-1(6),2,4-trien-2-yl)carbamoyl)-4-(2-hydroxypropan-2-yl)furan-2-sulfonamide]
[1]
  IC50: 0.1 to 0.5 µM

## C=C(c1c(C)cc2c(c1NC(=O)NS(=O)(=O)c1cc(C(C)(C)O)co1)CCC2)C1CC1 [Compound 40, N-((5-(1-cyclopropylvinyl)-6-methyl-2,3-dihydro-1H-inden-4-yl)carbamoyl)-4-(2-hydroxypropan-2-yl)furan-2-sulfonamide]
[1]
  IC50: 1 to 5 µM

## C[C@@H](c1cc(C#N)c2c(c1NC(=O)NS(=O)(=O)c1cc(C(C)(C)O)co1)CCC2)C1CC1 [Compound 45, (R)-N-((7-cyano-5-(1-cyclopropylethyl)-2,3-dihydro-1H-inden-4-yl)carbamoyl)-4-(2-hydroxypropan-2-yl)furan-2-sulfonamide]
[1]
  IC50: 0.1 to 0.5 µM

## C[C@H](c1cc(C#N)c2c(c1NC(=O)NS(=O)(=O)c1cc(C(C)(C)O)co1)CCC2)C1CC1 [Compound 47, (S)-N-((7-cyano-5-(1-cyclopropylethyl)-2,3-dihydro-1H-inden-4-yl)carbamoyl)-4-(2-hydroxypropan-2-yl)furan-2-sulfonamide]
[1]
  IC50: 0.5 to 1 µM

## C[C@H](c1ccc2c(c1NC(=O)N[S@@](=N)(=O)c1cc(C(C)(C)O)cs1)CCC2)C1CC1 [Compound 54-1]
[1]
  IC50: 1 to 5 µM

## C[C@H](c1ccc2c(c1NC(=O)N[S@](=N)(=O)c1cc(C(C)(C)O)cs1)CCC2)C1CC1 [Compound 54-2]
[1]
  IC50: 0.1 to 0.5 µM

## C[C@@H](c1ccc2c(c1NC(=O)N[S@@](=N)(=O)c1cc(C(C)(C)O)cs1)CCC2)C1CC1 [Compound 55-1]
[1]
  IC50: 0.1 to 0.5 µM

## C[C@H](c1ccc2c(c1NC(=O)NS(=O)(=O)c1ccc(C(C)(C)O)s1)CCC2)C1CC1 [Compound 57, (S)-N-((5-(1-cyclopropylethyl)-2,3-dihydro-1H-inden-4-yl)carbamoyl)-5-(2-hydroxypropan-2-yl)thiophene-2-sulfonamide]
[1]
  IC50: 1 to 5 µM

## C[C@@H](c1ccc2c(c1NC(=O)NS(=O)(=O)c1ccc(C(C)(C)O)s1)CCC2)C1CC1 [Compound 58, (R)-N-((5-(1-cyclopropylethyl)-2,3-dihydro-1H-inden-4-yl)carbamoyl)-5-(2-hydroxypropan-2-yl)thiophene-2-sulfonamide]
[1]
  IC50: 1 to 5 µM

## C[C@@H](c1ccc2c(c1NC(=O)NS(=O)(=O)c1cc(C3(O)CC3)co1)CCC2)C1CC1 [Compound 59, (R)-N-((5-(1-cyclopropylethyl)-2,3-dihydro-1H-inden-4-yl)carbamoyl)-4-(1-hydroxycyclopropyl)furan-2-sulfonamide]
[1]
  IC50: 0.5 to 1 µM

## C[C@H](c1ccc2c(c1NC(=O)NS(=O)(=O)c1cc(C3(O)CC3)co1)CCC2)C1CC1 [Compound 60, (S)-N-((5-(1-cyclopropylethyl)-2,3-dihydro-1H-inden-4-yl)carbamoyl)-4-(1-hydroxycyclopropyl)furan-2-sulfonamide]
[1]
  IC50: 0.1 to 0.5 µM

## O=C(Nc1c(CC2CCC2)ccc2c1CCC2)NS(=O)(=O)c1cc(C2(O)CC2)co1 [Compound 61, N-((5-(cyclobutylmethyl)-2,3-dihydro-1H-inden-4-yl)carbamoyl)-4-(1-hydroxycyclopropyl)furan-2-sulfonamide]
[1]
  IC50: 1 to 5 µM

## C[C@@H](c1ccc2c(c1NC(=O)NS(=O)(=O)c1sc(C(C)(C)O)cc1C#N)CCC2)C1CC1 [Compound 62, (R)-3-cyano-N-((5-(1-cyclopropylethyl)-2,3-dihydro-1H-inden-4-yl)carbamoyl)-5-(2-hydroxypropan-2-yl)thiophene-2-sulfonamide]
[1]
  IC50: ≤ 0.1 µM

## C[C@H](c1ccc2c(c1NC(=O)NS(=O)(=O)c1sc(C(C)(C)O)cc1C#N)CCC2)C1CC1 [Compound 63, (S)-3-cyano-N-((5-(1-cyclopropylethyl)-2,3-dihydro-1H-inden-4-yl)carbamoyl)-5-(2-hydroxypropan-2-yl)thiophene-2-sulfonamide]
[1]
  IC50: 0.1 to 0.5 µM

## C[C@@H](c1ccc2c(c1NC(=O)NS(=O)(=O)c1sc(C(C)(C)O)cc1F)CCC2)C1CC1 [Compound 64, (R)-N-((5-(1-cyclopropylethyl)-2,3-dihydro-1H-inden-4-yl)carbamoyl)-3-fluoro-5-(2-hydroxypropan-2-yl)thiophene-2-sulfonamide]
[1]
  IC50: 0.1 to 0.5 µM
